According to US11897862B2 (Gilead Sciences, Inc., priority 2022, dated 2024):

Columns and labels:
IKZF2 = IKZF2 (Homo sapiens, UniProt Q96SW2+Q9UKS7); test: HEK293 HiBiT in vitro degradation of IKZF2; type: cell-based; design: expressed in transfected cells; details: for Dmax: HEK293, HEK293 HiBiT, maximum degradation at the highest concentration tested; for DC50: HEK293 HiBiT, 18-24 hr incubation, normalized to DMSO control, read-out: IKZF2 EC50
Outline: (§1)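 Cellular target level is measured as luminescence from an 11-residue HiBiT tag fused via a linker to the C-terminus of IKZF1, IKZF2 or SALL4 in stable Flp-In T-REx HEK293 pools. Reporter expression is induced overnight with doxycycline ([…] final), and compounds act for 18-24 h before lytic detection.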

IKZF1 = target: T1, IKZF1 (Homo sapiens, UniProt Q13422+Q96SW2); test: HEK293 HiBiT in vitro degradation of IKZF1; type: cell-based; details: for DC50: HEK293 HiBiT, 18-24 hr incubation, normalized to DMSO control, read-out: IKZF1 EC50; for Dmax: HEK293, HEK293 HiBiT, maximum degradation at the highest concentration tested
T1 construct: expressed in transfected cells
T1 sequence (Q13422 whole entry): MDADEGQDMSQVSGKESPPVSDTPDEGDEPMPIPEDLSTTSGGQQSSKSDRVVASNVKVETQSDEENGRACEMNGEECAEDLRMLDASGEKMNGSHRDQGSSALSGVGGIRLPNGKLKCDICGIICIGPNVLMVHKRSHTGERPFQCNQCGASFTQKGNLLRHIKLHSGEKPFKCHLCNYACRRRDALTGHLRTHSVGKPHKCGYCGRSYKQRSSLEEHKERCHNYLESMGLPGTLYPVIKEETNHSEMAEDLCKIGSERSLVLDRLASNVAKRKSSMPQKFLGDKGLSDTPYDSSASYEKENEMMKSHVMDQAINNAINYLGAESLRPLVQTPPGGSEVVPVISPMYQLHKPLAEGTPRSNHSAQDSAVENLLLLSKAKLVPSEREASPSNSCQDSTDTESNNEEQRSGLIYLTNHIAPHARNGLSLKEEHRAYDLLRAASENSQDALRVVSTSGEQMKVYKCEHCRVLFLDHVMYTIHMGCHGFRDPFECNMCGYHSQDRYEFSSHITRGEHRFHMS
T1 sequence (Q96SW2 whole entry): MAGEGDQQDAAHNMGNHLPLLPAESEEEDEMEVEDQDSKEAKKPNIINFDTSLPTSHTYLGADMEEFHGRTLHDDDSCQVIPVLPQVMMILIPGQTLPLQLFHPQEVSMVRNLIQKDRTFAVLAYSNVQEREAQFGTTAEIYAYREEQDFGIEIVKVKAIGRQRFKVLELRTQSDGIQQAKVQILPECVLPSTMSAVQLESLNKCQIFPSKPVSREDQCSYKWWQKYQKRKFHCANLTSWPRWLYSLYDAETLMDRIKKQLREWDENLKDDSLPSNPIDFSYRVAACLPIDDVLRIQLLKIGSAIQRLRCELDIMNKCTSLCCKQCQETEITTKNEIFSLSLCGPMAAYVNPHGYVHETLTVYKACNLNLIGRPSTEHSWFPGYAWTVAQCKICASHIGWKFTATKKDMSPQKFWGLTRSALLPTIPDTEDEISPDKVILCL
T1 sequence (Q16531 whole entry partner): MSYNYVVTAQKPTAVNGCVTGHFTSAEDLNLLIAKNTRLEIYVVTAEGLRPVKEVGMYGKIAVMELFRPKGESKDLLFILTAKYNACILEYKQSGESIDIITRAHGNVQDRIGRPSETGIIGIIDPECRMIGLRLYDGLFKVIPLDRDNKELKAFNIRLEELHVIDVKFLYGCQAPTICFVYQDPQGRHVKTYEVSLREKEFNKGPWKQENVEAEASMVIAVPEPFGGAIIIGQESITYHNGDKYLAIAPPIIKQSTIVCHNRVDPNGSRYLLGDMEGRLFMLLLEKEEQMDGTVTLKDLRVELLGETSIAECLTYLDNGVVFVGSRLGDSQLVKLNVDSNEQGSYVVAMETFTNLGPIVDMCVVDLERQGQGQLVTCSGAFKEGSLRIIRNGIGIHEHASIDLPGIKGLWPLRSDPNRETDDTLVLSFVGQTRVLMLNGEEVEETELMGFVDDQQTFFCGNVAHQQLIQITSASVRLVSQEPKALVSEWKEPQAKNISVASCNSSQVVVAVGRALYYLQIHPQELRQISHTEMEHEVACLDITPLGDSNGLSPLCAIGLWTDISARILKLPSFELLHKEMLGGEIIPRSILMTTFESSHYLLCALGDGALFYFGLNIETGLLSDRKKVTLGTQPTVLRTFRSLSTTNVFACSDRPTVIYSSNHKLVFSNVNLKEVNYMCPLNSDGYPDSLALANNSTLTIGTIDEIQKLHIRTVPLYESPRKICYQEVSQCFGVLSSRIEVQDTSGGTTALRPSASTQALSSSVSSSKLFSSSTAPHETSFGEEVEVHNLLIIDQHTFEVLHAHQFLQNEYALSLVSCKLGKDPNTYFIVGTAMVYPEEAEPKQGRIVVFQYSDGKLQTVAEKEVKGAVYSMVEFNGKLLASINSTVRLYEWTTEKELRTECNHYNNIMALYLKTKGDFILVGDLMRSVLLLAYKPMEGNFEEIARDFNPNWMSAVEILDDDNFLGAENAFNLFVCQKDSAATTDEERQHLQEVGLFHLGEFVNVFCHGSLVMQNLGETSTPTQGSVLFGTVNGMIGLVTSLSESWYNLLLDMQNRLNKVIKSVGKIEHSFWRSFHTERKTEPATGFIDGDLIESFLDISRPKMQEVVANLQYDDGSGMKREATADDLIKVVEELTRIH
Outline: as §1

IKZF2, sequence (Q9UKS7 1-500 isoform Q9UKS7-2): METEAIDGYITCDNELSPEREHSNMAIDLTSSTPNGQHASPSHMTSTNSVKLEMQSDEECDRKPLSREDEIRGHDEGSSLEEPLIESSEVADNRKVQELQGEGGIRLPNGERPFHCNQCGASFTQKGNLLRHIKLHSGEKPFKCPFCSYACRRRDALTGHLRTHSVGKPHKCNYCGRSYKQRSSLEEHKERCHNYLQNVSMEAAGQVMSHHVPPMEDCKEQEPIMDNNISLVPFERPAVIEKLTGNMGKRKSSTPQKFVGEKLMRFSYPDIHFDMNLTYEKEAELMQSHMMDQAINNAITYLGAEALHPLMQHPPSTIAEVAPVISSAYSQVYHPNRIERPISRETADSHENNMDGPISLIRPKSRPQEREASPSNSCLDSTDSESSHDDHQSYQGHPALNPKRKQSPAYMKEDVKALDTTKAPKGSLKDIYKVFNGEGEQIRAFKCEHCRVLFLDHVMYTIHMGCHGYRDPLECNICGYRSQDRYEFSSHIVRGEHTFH
IKZF2, sequence (Q96SW2 whole entry, the tested form may be a part): as the sequence (Q96SW2 whole entry) above
IKZF2, sequence (Q16531 whole entry partner, the tested form may be a part): as the sequence (Q16531 whole entry partner) above

| Compound | Dmax (IKZF2) [%] | DC50 (IKZF2) [nM] | DC50 (IKZF1) [nM] | Dmax (IKZF1) [%] |
| --- | --- | --- | --- | --- |
| C[C@H](N[C@H]1CCCC[C@@H]1Cc1ccc2c(c1)CN(C1CCC(=O)NC1=O)C2=O)c1ccccc1 (stereo partly drawn) [Example 66, 3-(1-oxo-5-(((1R,2S)-2-(((S)-1-phenylethyl)amino)cyclohexyl)methyl)isoindolin-2-yl)piperidine-2,6-dione] | 89 | 17 | > 1000 | – |
| O=C1CCC(N2Cc3cc(C[C@H]4CCCC[C@@H]4N(CC4CCOCC4)CC4CCOCC4)ccc3C2=O)C(=O)N1 (stereo partly drawn) [Example 70] | 48 | 80 | > 1000 | – |
| O=C1CCC(N2Cc3cc(C[C@H]4CCCC[C@@H]4NCC4CCOCC4)ccc3C2=O)C(=O)N1 (stereo partly drawn) [Example 71] | 89 | 37 | > 1000 | – |
| CC(COc1ccccc1)N[C@H]1CCCC[C@@H]1Cc1ccc2c(c1)CN(C1CCC(=O)NC1=O)C2=O (stereo partly drawn) [Example 77] | 90 | 11 | > 1000 | – |
| O=C1CCC(N2Cc3cc(C[C@H]4CCCC[C@@H]4NC4CCC5(CC4)COC5)ccc3C2=O)C(=O)N1 (stereo partly drawn) [Example 86, 3-(5-(((1R,2S)-2-((2-oxaspiro[3.5]nonan-7-yl)amino)cyclohexyl)methyl)-1-oxoisoindolin-2-yl)piperidine-2,6-dione] | 97 | 12 | 141 | 34 |
| O=C1CCC(N2Cc3c(ccc(C[C@H]4CCCC[C@@H]4NC4CCCCC4)c3F)C2=O)C(=O)N1 (stereo partly drawn) [Example 88, 3-(5-(((1R,2S)-2-(cyclohexylamino)cyclohexyl)methyl)-4-fluoro-1-oxoisoindolin-2-yl)piperidine-2,6-dione] | 99 | 1 | 101 | 38 |
| O=C1CCC(N2Cc3cc(C[C@H]4OCCC[C@@H]4NC4CCC(F)(F)CC4)ccc3C2=O)C(=O)N1 (stereo partly drawn) [Example 92, 3-(5-(((2R,3S)-3-((4,4-difluorocyclohexyl)amino)tetrahydro-2H-pyran-2-yl)methyl)-1-oxoisoindolin-2-yl)piperidine-2,6-dione] | 82 | 44 | > 1000 | – |
| CC1(C)CC2(CC(N[C@H]3CCCC[C@@H]3Cc3ccc4c(c3)CN(C3CCC(=O)NC3=O)C4=O)C2)C1 (stereo partly drawn) [Example 100] | 94 | 12 | 61 | 34 |
| CC(N[C@H]1CCCC[C@@H]1Cc1ccc2c(c1)CN(C1CCC(=O)NC1=O)C2=O)C1CC1 (stereo partly drawn) [Example 102] | 96 | 6 | 242 | 27 |
| O=C1CCC(N2Cc3cc(C[C@H]4CCCC[C@@H]4NCCC(F)(F)F)ccc3C2=O)C(=O)N1 (stereo partly drawn) [Example 104] | 92 | 16 | 75 | 37 |

Continued by falling DC50 (IKZF2), values first:

| Dmax (IKZF2) [%] | DC50 (IKZF2) [nM] | DC50 (IKZF1) [nM] | Dmax (IKZF1) [%] | Compound |
| --- | --- | --- | --- | --- |
| 75 | 69 | > 1000 | – | CC(C)(C)CCN(CCC(C)(C)C)[C@H]1CCCC[C@@H]1Cc1ccc2c(c1F)CN(C1CCC(=O)NC1=O)C2=O (stereo partly drawn) [Example 90, 3-(5-(((1R,2S)-2-(bis(3,3-dimethylbutyl)amino)cyclohexyl)methyl)-4-fluoro-1-oxoisoindolin-2-yl)piperidine-2,6-dione] |
| 92 | 37 | > 1000 | – | O=C1CCC(N2Cc3cc(C[C@H]4CCCC[C@@H]4NCC45CCC(CC4)CC5)ccc3C2=O)C(=O)N1 (stereo partly drawn) [Example 83, 3-(5-(((1R,2S)-2-((bicyclo[2.2.2]octan-1-ylmethyl)amino)cyclohexyl)methyl)-1-oxoisoindolin-2-yl)piperidine-2,6-dione] |
| 83 | 35 | > 1000 | – | O=C1CCC(N2Cc3cc(C[C@H]4CCCC[C@@H]4NC4COC4)ccc3C2=O)C(=O)N1 (stereo partly drawn) [Example 72] |
| 84 | 34 | > 1000 | – | COc1ccccc1CCN[C@H]1CCCC[C@@H]1Cc1ccc2c(c1)CN(C1CCC(=O)NC1=O)C2=O (stereo partly drawn) [Example 76] |
| 95 | 33 | 299 | 32 | O=C1CCC(N2Cc3cc(C[C@H]4CCCC[C@@H]4NC4CC5(COC5)C4)ccc3C2=O)C(=O)N1 (stereo partly drawn) [Example 80, 3-(5-(((1R,2S)-2-((2-oxaspiro[3.3]heptan-6-yl)amino)cyclohexyl)methyl)-1-oxoisoindolin-2-yl)piperidine-2,6-dione] |
| 91 | 31 | > 1000 | – | O=C1CCC(N2Cc3cc(C[C@H]4CCCC[C@@H]4NCC4COC4)ccc3C2=O)C(=O)N1 (stereo partly drawn) [Example 68, 3-(5-(((1R,2S)-2-((oxetan-3-ylmethyl)amino)cyclohexyl)methyl)-1-oxoisoindolin-2-yl)piperidine-2,6-dione] |
| 74 | 30 | > 1000 | – | O=C1CCC(N2Cc3cc(C[C@H]4CCCC[C@@H]4N4CC(OCC5CC5)C4)ccc3C2=O)C(=O)N1 (stereo partly drawn) [Example 67, 3-(5-(((1R,2S)-2-(3-(cyclopropylmethoxy)azetidin-1-yl)cyclohexyl)methyl)-1-oxo-isoindolin-2-yl)piperidine-2,6-dione] |
| 91 | 23 | 39 | 22 | O=C1CCC(N2Cc3cc(C[C@H]4CCCC[C@@H]4NCCc4ccccc4)ccc3C2=O)C(=O)N1 (stereo partly drawn) [Example 93, 3-(1-oxo-5-(((1R,2S)-2-(phenethylamino)cyclohexyl)methyl)isoindolin-2-yl)piperidine-2,6-dione] |
| 91 | 19 | > 1000 | – | O=C1CCC(N2Cc3cc(C[C@H]4CCCC[C@@H]4NCC4CCOC4)ccc3C2=O)C(=O)N1 (stereo partly drawn) [Example 69] |
| 97 | 17 | 160 | 47 | O=C1CCC(N2Cc3cc(C[C@H]4CCCC[C@@H]4NC4CCS(=O)(=O)CC4)ccc3C2=O)C(=O)N1 (stereo partly drawn) [Example 91, 3-(5-(((1R,2S)-2-((1,1-dioxidotetrahydro-2H-thiopyran-4-yl)amino)cyclohexyl)methyl)-1-oxoisoindolin-2-yl)piperidine-2,6-dione] |
| 92 | 16 | > 1000 | – | CCOCC(C)N[C@H]1CCCC[C@@H]1Cc1ccc2c(c1)CN(C1CCC(=O)NC1=O)C2=O (stereo partly drawn) [Example 78] |
| 94 | 14 | 68 | 37 | O=C1CCC(N2Cc3c(ccc(C[C@H]4CCCC[C@@H]4NCC4CCC(F)(F)CC4)c3F)C2=O)C(=O)N1 (stereo partly drawn) [Example 99] |
| 95 | 9 | 173 | 35 | O=C1CCC(N2Cc3c(ccc(C[C@H]4CCCC[C@@H]4NCC45CC(C4)C5)c3F)C2=O)C(=O)N1 (stereo partly drawn) [Example 96] |
| 95 | 7 | > 1000 | – | O=C1CCC(N2Cc3cc(C[C@H]4CCCC[C@@H]4NC4CCOC4)ccc3C2=O)C(=O)N1 (stereo partly drawn) [Example 73] |
| 95 | 7 | 888 | 51 | CCOC1CC(N[C@H]2CCCC[C@@H]2Cc2ccc3c(c2)CN(C2CCC(=O)NC2=O)C3=O)C1 (stereo partly drawn) [Example 75] |
| 96 | 4 | 28 | 41 | O=C1CCC(N2Cc3c(ccc(C[C@H]4CCCC[C@@H]4NCC4CC(F)(F)C4)c3F)C2=O)C(=O)N1 (stereo partly drawn) [Example 81, 3-(5-(((1R,2S)-2-(((3,3-difluorocyclobutyl)methyl)amino)cyclohexyl)methyl)-4-fluoro-1-oxoisoindolin-2-yl)piperidine-2,6-dione] |
